Data as given in ChEMBL document CHEMBL2069188, “Structural requirements for the antitubercular quaternized triflupromazine pharmacophore” (Bioorg Med Chem Lett, 2012).
≈ marks a conversion by molar mass, not a printed value.

What follows are compounds tested on Mycobacterium tuberculosis (assay: Antitubercular activity against highly drug-resistant, non replicating, persistent Mycobacterium tuberculosis harboring Vibrio harveyii luciferase gene incubated under anaerobic condition measured after 28 hrs of aerobic recovery by LORA method).
Assay type: functional

Structure (SMILES)	MIC90
C[N+](C)(CCCN1c2ccccc2Sc2ccc(C(F)(F)F)cc21)Cc1ccc(Br)cc1.[Br-]	7.1 µM
C[N+](C)(CCCN1c2ccccc2Sc2ccc(C(F)(F)F)cc21)Cc1ccc(I)cc1.[Br-]	7.2 µM
FC(F)(F)c1ccc2c(c1)N(Cc1cn(Cc3ccc(Cl)cc3)nn1)c1ccccc1S2	> 100 µM
C[N+](C)(CCCN1c2ccccc2Sc2ccc(C(F)(F)F)cc21)Cc1ccc(F)cc1.[Cl-]	14.3 µM
C[N+](C)(CCCN1c2ccccc2Sc2ccc(C(F)(F)F)cc21)Cc1ccc(Cl)cc1.[Cl-]	7.8 µM
CO[C@H]1/C=C/O[C@@]2(C)Oc3c(C)c(O)c4c(O)c(c(/C=N/N5CCN(C)CC5)c(O)c4c3C2=O)NC(=O)/C(C)=C\C=C\[C@H](C)[C@H](O)[C@@H](C)[C@@H](O)[C@@H](C)[C@H](OC(C)=O)[C@@H]1C [RIFAMPIN]	0.61 µM (≈ 0.502 µg/mL)
